Values of other authors as cited in US20110008431A1, “THERAPEUTIC TABLET FOR POSTHERPETIC NEURALGIA AND METHOD OF TREATING POSTHERPETIC NEURALGIA” (TOYO BOSEKI KABUSHIKI KAISHA, priority 2007, published 2011).

Test system: patient with neuropathic pain
Conditions: devazepide in combination with an opioid analgesic agent such as morphine, Patent Document 1

For CN1C(=O)[C@@H](NC(=O)c2cc3ccccc3[nH]2)N=C(c2ccccc2)c2ccccc21 [devazepide], the “subjects who attained pain relief” value is given as 10 of 41.
